Laboratory results from patent US10463664B2, “Inhibitors of HSV nucleotidyl transferases and uses therefor” (Saint Louis University, priority 2013, dated 2019).

Columns and labels:
HBV RNaseH = target: T1, HBV RNaseH (Hepatitis B virus genotype A2 subtype adw2, UniProt P03159); experiment: Biochemical inhibition of HBV RNaseH (oligonucleotide-directed RNA cleavage assay); conditions: compounds at 60, 20 or 10 μM
T1 construct: One of the inventors recently produced active recombinant HBV RNase H; hexahistidine; made in house; host or cells: E. coli
T1 sequence (P03159 693-845): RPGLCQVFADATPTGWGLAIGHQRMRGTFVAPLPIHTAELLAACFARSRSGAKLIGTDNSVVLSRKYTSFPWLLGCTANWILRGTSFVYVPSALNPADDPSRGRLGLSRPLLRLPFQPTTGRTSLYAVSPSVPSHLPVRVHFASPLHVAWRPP
Description: (§1) Biochemical inhibition of HBV RNaseH and human RNaseH1 activity. […] RNaseH activity was measured using an oligonucleotide-directed RNA cleavage assay in which a DNA oligonucleotide is annealed to an internally ^32P-labeled RNA, the RNA:DNA heteroduplex is incubated with the enzyme to permit cleavage, and then the RNA cleavage products are resolved by electrophoresis and detected by autoradiography. The compounds were included in the reaction mixes at 60, 20, or 10 μM and the amount of the RNA cleavage products in the compound-containing reactions was compared to reactions in which an equivalent concentration of DMSO was added as a vehicle control. The data were quantified using ImageJ.

HSV-2 [1] = experiment: Anti-HSV-2 replication assay in Vero cells, titer by plaque assay; assay type: cell-based, herpes simplex virus 2; conditions: for Anti-HSV-2 Log10 suppression 5 μM / Anti-HSV-2 Log10 suppression 50 μM: moi 0.1, 24 h, relative to DMSO; for Anti-HSV-2 Log10 suppression 5 μM (screening symbol) / Anti-HSV-2 Log10 suppression 50 μM (screening symbol): visual inspection; for Inhibition of HSV-2 replication (in words): primary screening
Description: (§2) Anti-HSV-1 and -HSV-2 Replication Assay. Compounds to be screened were diluted in PBS supplemented to contain 2% newborn calf serum and 1% glutamine, and added in 100 μL, volume to confluent cell monolayers in 24-well cluster plates. Immediately thereafter HSV-1 and HSV-2, diluted in the supplemented PBS medium, were added to the wells in 50 μl volume such that the final concentration of compound was 50 μM and 5 μM and the multiplicity of infection was 0.1. The plates were incubated at 37° C. for 1 hour and then virus-containing inoculum was removed and the wells were washed once in PBS. Compounds, diluted to 50 μM and 5 μM in DMEM supplemented to contain 2% newborn calf serum and 1% each penicillin/streptomycin, were added at 0.5 mL/well. Plates were incubated at 37° C. an additional 23 hr, and then the plates were visually inspected through a phase contrast microscope for cytopathic effect, and for toxic effect. […] The entire contents of each well were collected by scraping. Samples were frozen at −80° C., and then subsequently thawed, sonicated, and infectious virus titer was determined by standard plaque assay on Vero cell monolayers. Because the compounds were dissolved at 10 mM in 100% DMSO, equivalent dilutions of DMSO were added to additional wells as a control for effects of the diluent. Each experiment was repeated once. EC50 values were determined as above except that serial dilutions of the compound to be tested were prepared starting at 50 μM. The inhibitory values were calculated by non-linear curve-fitting in GraphPad Prism.
(§3) Monolayers were microscopically inspected 24 hours post-infection and wells in which more cells were visually healthier than the DMSO-treated controls were collected. Viral titers in the culture lysates were then determined by standard plaque assay on Vero cells. Inhibition of viral replication was categorized as <1 log10 relative to the DMSO-treated control, 1 to 3 log10 suppression, or ≥3 log10 suppression. […] Additionally, four polyoxygenated heterocycle compounds were tested (#128, 138, 139, 140).

Vero cells [2] = experiment: CytoTox-Glo cellular lysis assay in Vero cells; assay type: cell-based; conditions: 24 h; read-out: Vero cell toxicity CTG CC50
Description: Quantitative toxicity measurements were conducted for all compounds that suppressed HSV replication by approximately 2 login or more at 5 μM plus a number of compounds with lesser inhibitory activity for comparison. Toxicity was assessed by measuring release of intracellular proteases into the culture medium due to cellular lysis. […] Consistent with the subjective assessments of toxicity, all compounds selected for quantitative toxicity assessment had CC50 values ≥50 μM by both the MTT and cellular lysis assays (Table 1).

human RNaseH1 = target: T2, human RNaseH1 (Homo sapiens, UniProt O60930); experiment: Biochemical inhibition of human RNaseH1 (oligonucleotide-directed RNA cleavage assay); conditions: compounds at 60, 20 or 10 μM
T2 construct: hexahistidine; made in house; host or cells: E. coli
T2 sequence (O60930 1-286): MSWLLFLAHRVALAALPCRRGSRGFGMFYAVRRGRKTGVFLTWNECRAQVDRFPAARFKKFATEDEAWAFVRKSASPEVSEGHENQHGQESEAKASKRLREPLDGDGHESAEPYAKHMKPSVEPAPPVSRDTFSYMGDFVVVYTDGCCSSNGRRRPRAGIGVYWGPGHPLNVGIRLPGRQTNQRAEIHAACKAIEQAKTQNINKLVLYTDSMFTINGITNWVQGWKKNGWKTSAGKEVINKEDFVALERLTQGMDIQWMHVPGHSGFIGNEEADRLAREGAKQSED
Description: as §1

HSV-1 [3] = experiment: Anti-HSV-1 replication assay in Vero cells, titer by plaque assay; assay type: cell-based, herpes simplex virus 1; conditions: for Anti-HSV-1 Log10 suppression 5 μM / Anti-HSV-1 Log10 suppression 50 μM: moi 0.1, 24 h, relative to DMSO; for Anti-HSV-1 Log10 suppression 5 μM (screening symbol) / Anti-HSV-1 Log10 suppression 50 μM (screening symbol): visual inspection; for Inhibition of HSV-1 replication (in words): primary screening
Description: as §2, §3

Vero cells [4] = experiment: MTT mitochondrial toxicity assay in Vero cells; assay type: cell-based; conditions: 24 h; read-out: Vero cell toxicity MTT CC50
Vero cells [5] = experiment: Qualitative (visual) cytotoxicity assessment in primary screening; assay type: cell-based; set-up: key to Vero cell toxicity Qualitative: T: visual evidence of toxicity at 50 μM; conditions: for Vero cell toxicity Qualitative: visual, 50 μM
Description: Compound Cytotoxicity. Compound cytotoxicity was measured both subjectively and quantitatively. Subjective assessments were done by visually inspecting the infected cells at the end of the 24 hours infection window through a phase-contrast microscope.

[6] = system: primary human foreskin fibroblasts; experiment: MTT toxicity assay in human foreskin fibroblasts
Description: Toxicity Assays. Qualitative assessments of cytotoxicity were done visually by inspecting the cells in the primary screening assays. For the quantitative assays, cells were plated in 96-well plates at 1.0×10^4 per well. The next day the compounds were added at 0.78 to 100 μM in a final concentration of 1% (v/v) DMSO, and the cells were incubated for 24 hours under conditions identical to those employed for the viral replication inhibition assays. Mitochondrial toxicity was measured by incubating the cells with 0.25 mg/mL thiazolyl blue tetrazolium bromide (MTT, SigmaAldrich Chemical Co.), the cultures were incubated for 60 min, metabolites were solubilized in acidic isopropanol, and absorbance was read at 570 nm. Cellular lysis was measured by detecting release of intracellular proteases with the CytoTox-Glo assay (Promega) according to the manufacturer's instructions. Percent viability was determined for each compound concentration from the maximal absorbance or luminosity data, and then CC50 values were calculated by non-linear curve fitting using GraphPad Prism.
(§4) Inhibition of viral replication was next assessed in human foreskin fibroblasts (HFF) to determine whether NTS inhibitors could block HSV-1 and HSV-2 replication in a physiologically relevant, primary human cell type. […] Viral yields 24 hours post-infection were measured by plaque assay.

HSV-1 [7] = experiment: HSV-1 replication inhibition in primary human foreskin fibroblasts; assay type: cell-based, herpes simplex virus 1; set-up: key to Replication inhibition HSV-1 50 μM (not quantified): NQ: Not quantified due to visible toxicity; conditions: HFF cells; for Replication inhibition HSV-1 5 μM / Replication inhibition HSV-1 50 μM: relative to DMSO-treated control
Description: as §2, §4

HSV-2 [8] = experiment: HSV-2 replication inhibition in primary human foreskin fibroblasts; assay type: cell-based, herpes simplex virus 2; set-up: key to Replication inhibition HSV-2 50 μM (not quantified): NQ: Not quantified due to visible toxicity; conditions: HFF cells; for Replication inhibition HSV-2 5 μM / Replication inhibition HSV-2 50 μM: relative to DMSO-treated control
Description: as §2, §4

Row | Structure (SMILES) | Anti-HBV RNaseH (HBV RNaseH) | Anti-Human RNaseH1 (human RNaseH1) | Anti-HSV-2 Log10 suppression 5 μM (HSV-2 [1]) [log10] | Anti-HSV-2 Log10 suppression 50 μM (HSV-2 [1]) [log10] | Anti-HSV-1 Log10 suppression 5 μM (HSV-1 [3]) [log10] | Anti-HSV-1 Log10 suppression 50 μM (HSV-1 [3]) [log10] | Anti-HSV-2 Log10 suppression 50 μM (screening symbol) (HSV-2 [1]) | Vero cell toxicity Qualitative (Vero cells [5]) | Inhibition of HSV-2 replication (in words) (HSV-2 [1]) | Replication inhibition HSV-1 5 μM (HSV-1 [7]) [log10] | Replication inhibition HSV-2 5 μM (HSV-2 [8]) [log10] | Inhibition of HSV-1 replication (in words) (HSV-1 [3]) | CC50 [6] [µM] | Replication inhibition HSV-1 50 μM (not quantified) (HSV-1 [7]) | Replication inhibition HSV-2 50 μM (not quantified) (HSV-2 [8]) | other results
1 | CC(C)c1cccc(O)c(=O)c1 [Compound 47, Beta-thujaplicin] | − (no inhibition at 60 μM) | − (no inhibition at 60 μM) | 0.22 | 1.38 | 0.31 | 1.86 |  |  | negligible inhibitors | 0.02 | 0.08 | negligible inhibitors |  |  |  | CC50 ([6]; read-out: Toxicity, CC50 by MTT assay, HFF cells, 24 h): > 100 µM; Replication inhibition HSV-1 50 μM (HSV-1 [7]): 5.06 log10; Replication inhibition HSV-2 50 μM (HSV-2 [8]): 5.16 log10
2 | O=Nc1ccc(O)c(=O)cc1 [Compound 50, 5-nitrosotropolone] | − (no inhibition at 60 μM) | − (no inhibition at 60 μM) |  |  |  |  | + | T |  | 2.92 | 2.88 |  | 40.4 | NQ^4 | NQ | Toxicity in HFF cells (in words) [6]: some toxicity
3 | O=c1cc(NCc2ccccc2)c2cccnc2n1O [Compound 151] |  |  | 2.26 |  | 2.16 |  |  | T |  |  |  |  |  |  |  | Anti-HSV-2 Log10 suppression 5 μM (HSV-2 [1]; listed as #151): > 2.15 log10; Anti-HSV-1 Log10 suppression 5 μM (HSV-1 [3]; listed as #151): > 2.15 log10; Cytotoxicity at 50 μM (in words) (Vero cells [5]): significant cytotoxicity
4 | O=c1cc(NC2CCc3ccccc32)c2cccnc2n1O (stereo not drawn) [Compound 155] |  |  | 3.88 |  | 3.85 |  |  | T |  |  |  |  |  |  |  | Anti-HSV-2 Log10 suppression 5 μM (HSV-2 [1]; listed as #155): > 3.84 log10; Anti-HSV-1 Log10 suppression 5 μM (HSV-1 [3]; listed as #155): > 3.84 log10; Cytotoxicity at 50 μM (in words) (Vero cells [5]): significant cytotoxicity

Second part, led by results:

Row | Anti-HBV RNaseH (HBV RNaseH) | Anti-Human RNaseH1 (human RNaseH1) | Structure (SMILES) | Anti-HSV-2 Log10 suppression 5 μM (HSV-2 [1]) [log10] | Anti-HSV-2 Log10 suppression 50 μM (HSV-2 [1]) [log10] | Anti-HSV-1 Log10 suppression 5 μM (HSV-1 [3]) [log10] | Anti-HSV-1 Log10 suppression 50 μM (HSV-1 [3]) [log10] | Anti-HSV-2 Log10 suppression 50 μM (screening symbol) (HSV-2 [1]) | Vero cell toxicity Qualitative (Vero cells [5]) | Inhibition of HSV-2 replication (in words) (HSV-2 [1]) | Replication inhibition HSV-1 5 μM (HSV-1 [7]) [log10] | Replication inhibition HSV-2 5 μM (HSV-2 [8]) [log10] | Inhibition of HSV-1 replication (in words) (HSV-1 [3]) | CC50 [6] [µM] | Replication inhibition HSV-1 50 μM (not quantified) (HSV-1 [7]) | Replication inhibition HSV-2 50 μM (not quantified) (HSV-2 [8]) | other results
5 | − (no inhibition at 60 μM) | − (no inhibition at 60 μM) | C[C@H](Cc1ccc(O)c(O)c1)[C@@H](C)Cc1ccc(O)c(O)c1 [Compound 2] | −0.15 | 4.38 | −0.19 | 3.21 |  |  |  |  |  |  |  |  |  | CC50 (Vero cells [2]): > 100 µM; CC50 (Vero cells [4]): > 100 µM
6 | − (no inhibition at 60 μM) | − (no inhibition at 60 μM) | COc1cc2c(cc1Cc1cccc(Cl)c1F)c(=O)c(C(=O)O)cn2[C@H](CO)C(C)C [Compound 10, Elvitegravir, reference compound] |  |  |  |  | − | T |  |  |  |  |  |  |  | Anti-HSV-2 Log10 suppression 5 μM (screening symbol) (HSV-2 [1]): −; Anti-HSV-1 Log10 suppression 5 μM (screening symbol) (HSV-1 [3]): −; Anti-HSV-1 Log10 suppression 50 μM (screening symbol) (HSV-1 [3]): −
7 | − (no inhibition at 60 μM) |  | CCOC(=O)c1sc(NC(=O)CSc2nccc(C)n2)c(C#N)c1C [Compound 27] |  |  |  |  | − | T |  |  |  |  |  |  |  | Anti-HSV-2 Log10 suppression 5 μM (screening symbol) (HSV-2 [1]): −; Anti-HSV-1 Log10 suppression 5 μM (screening symbol) (HSV-1 [3]): −; Anti-HSV-1 Log10 suppression 50 μM (screening symbol) (HSV-1 [3]): −
8 | − (no inhibition at 60 μM) | − (no inhibition at 60 μM) | CC(C)c1ccc(O)c(=O)cc1 [Compound 48, Gamma-thujaplicin] | 0.20 | 4.57 | 0.31 | 4.71 |  |  | negligible inhibitors | 0.05 | 0.20 | negligible inhibitors | > 100 |  |  | Replication inhibition HSV-1 50 μM (HSV-1 [7]): 5.99 log10; Replication inhibition HSV-2 50 μM (HSV-2 [8]): 5.76 log10
9 | − (no inhibition at 60 μM) | − (no inhibition at 60 μM) | O=C(Nc1ccc(O)c(=O)cc1)c1ccccc1 [Compound 52] | 0.10 | 1.34 | 0.07 | 2.02 |  |  | negligible inhibitors | 0.10 | −0.01 | negligible inhibitors | > 100 | NQ | NQ | 
10 | − (no inhibition at 60 μM) | ++ (inhibition at 20 μM) | Cc1ccc(S(=O)(=O)Oc2cccccc2=O)cc1 [Compound 61] | 0.23 |  | 0.15 |  | − | T | negligible inhibitors | −0.17 | −0.05 | negligible inhibitors | 27.8 | NQ | NQ | Toxicity in HFF cells (in words) [6]: some toxicity
